Reference: US20250352563A1, “Method and Use of Psilocybin in the Prevention and Treatment of Stroke” (Revive Therapeutics Ltd, priority 2022, published 2025)

Legend:
stroke rats (MCAo) [1] = assay: ANA12 antagonism of psilocybin-mediated neuroprotection in MCAo stroke rats; assay type: in vivo, rat
[2] = tested on: primary cortical neuronal culture; assay: ANA12 antagonism of psilocybin-mediated protection in primary cortical neuronal culture; conditions: Glu 100 μM + Psi 10 μM + ANA 10 μM; p<0.05, one-way ANOVA
Source text: A selective BDNF antagonist ANA12 was included on D10 along with psilocybin and glutamate (see timeline in FIG. 6C).

[3] = tested on: rat model of stroke (MCAo); conditions: intraperitoneal injection prior to MCAo; cited from earlier work
stroke rats (MCAo) [4] = assay: Post-stroke i.p. treatment, neurological and locomotor tests in MCAo stroke rats; conditions: 1 mg/kg/d i.p. days 3 to 7 after MCAo
Procedure: In the posttreatment group, Psilocybin (1 mg/kg/day, n=7) or vehicle (n=6) was administered i.p. from day 3 to day 7.
(b) Neurological deficits were scored by the Bederson's neurological test (35, 36). In a postural reflex test, rats were examined for the degree of abnormal posture when suspended by 20-30 cm above the testing table. They were scored according to the following criteria. • 0 Rats extend both forelimbs straight. No observable deficit. • 1 Rats keep the one forelimb to the breast and extend the other forelimb straight. • 2 Rats show decreased resistance to lateral push in addition to behavior in score 1 without circling. • 3 Rats twist the upper half of their body in addition to behavior in score 2.
(§1) Locomotion was measured using an infrared activity monitor (Accuscan, Columbus, OH) as we previously described (19, 37). Rats were individually placed in a 3D infrared behavior chamber (42×42×21 cm) for 60 min. Four parameters were recorded: (a) horizontal activity (HACTV, the total number of beam interruptions that occurred in the horizontal sensors), (b) total distance traveled (TOTDIST, the distance, in centimeters, traveled by the animals), and (c) No. of movements (MOVNO), (d) horizontal movements time (MOVTIME).
Psilocybin (1 mg/kg/d, n=7) or vehicle (n=6) was delivered systemically (i.p.) from days 3 to 7 after the MCAo. Neurological and locomotor tests were examined on day 9 (FIG. 4A).

[5] = tested on: rat primary cortical neuronal culture; assay: Glutamate neurotoxicity in primary cortical neuronal culture (MAP2 immunocytochemistry)
stroke rats (MCAo) [6] = assay: Pre-stroke i.c.v. treatment, brain infarction by TTC staining in MCAo stroke rats; assay type: in vivo, rat; conditions: i.c.v. pretreatment, day 2
[7] = tested on: MAP2, synaptophysin (SYP), IBA1, and BDNF expression; assay: Post-stroke i.p. treatment, qRT-PCR of lesioned cerebral cortex; assay type: in vivo, rat; conditions: 1 mg/kg/d i.p. days 3-7, cortex day 9
stroke rats (MCAo) [8] = assay: Pre-stroke i.c.v. treatment, neurological and locomotor tests in MCAo stroke rats; conditions: D2
Procedure: Psilocybin or vehicle was given before or after the MCAo. For the pretreatment, animals were anesthetized. Psilocybin (100 μM×20 μL, n=7) or vehicle (saline, 20 μl, n=7) was administered intracerebroventricularly (i.c.v., AP, −0.8 mm; LV, −1.5 mm; DV, −3.5 mm) at 15 min before MCAo through a Hamilton microsyringe. The speed of injection was controlled by a syringe pump (Micro 4, WPI, Sarasota, FL).
The right middle cerebral artery (MCA) was transiently occluded (MCAo) as we previously described (33). In brief, the bilateral common carotids were clamped with nontraumatic arterial clips. The right MCA was ligated with a 10-O suture to generate focal infarction in the cerebral cortex. The ligature and clips were removed after 60 min ischemia to generate reperfusion injury. Core body temperature was monitored with a thermistor probe and maintained at 37° C. with a heating pad during anesthesia. After recovery from anesthesia, body temperature was maintained at 37° C. using a temperature-controlled incubator.
as §1
A total of 14 adult rats were used for this analysis. Psilocybin (100 μM×20 μL, n=7) or vehicle (saline, 20 μL, n=7) was delivered to the lateral ventricle (i.c.v., coordinates: AP:0.8 mm, Lat:1.5 mm, DV −3.5 mm) at 10-15 min prior to the a 60-min MCAo. Behavioral tests were conducted two days (or D2) after MCAo (FIG. 2A). […] Locomotoractivity was examined in infra-red activity chambers for one hour.

[9] = non-lesioned brain; cited from earlier work
[10] = ANA12 100 μM×20 μL/d intranasally days 0 and 1, Psilocybin i.c.v. prior to MCAo
[11] = stroke reduced expression, p<0.05

SMILES: O=C(Nc1ccccc1C(=O)NC1CCCCNC1=O)c1cc2ccccc2s1 (centres unmarked) [ANA12]
- Psilocybin-mediated improvement in horizontal activity (stroke rats (MCAo) [1]; [10]): significantly antagonized
- Psilocybin-mediated improvement in total distance traveled (stroke rats (MCAo) [1]; [10]): significantly antagonized
- psilocybin-mediated improvement in neurological behavior (stroke rats (MCAo) [1]; [10]): significantly antagonized
- psilocybin-mediated reduction in brain infarction (stroke rats (MCAo) [1]; ANA12 100 μM×20 μL/d intranasally days 0 and 1 after MCAo, Psilocybin i.c.v. 100 μM×20 μl 15 min prior): significantly antagonized
- psilocybin-mediated improvement in MAP2-ir [2]: significantly antagonized

SMILES: CN(C)CCc1c[nH]c2ccccc12 [DMT, N,N-dimethyltryptamine]
- BDNF expression [3]: increased
- brain infarction [3]: reduced
- brain inflammation [3]: reduced
- staircase behavior [3]: improved

SMILES: CN(C)CCc1c[nH]c2cccc(OP(=O)(O)O)c12 [Psilocybin, 4-phosphoryloxy-N,N-dimethyltryptamine]
- horizontal activity (stroke rats (MCAo) [4]; day 9, p=0.011): increased
- total distance traveled (stroke rats (MCAo) [4]; day 9, p=0.018): increased
- movement number (stroke rats (MCAo) [4]; day 9, p=0.023): increased
- movement time (stroke rats (MCAo) [4]; day 9, p=0.034): increased
- body asymmetry (stroke rats (MCAo) [4]; day 9, p=0.0445): significantly reduced
- Bederson's neurological test (stroke rats (MCAo) [4]; tested day 9, p=0.0421): significantly reduced
- Glu-mediated neuronal loss (MAP2-ir) ([5]; Glu 100 μM, Psi 10 μM, photomicrographs FIG. 1A): antagonized
- area of infarction in each 2-mm slice (stroke rats (MCAo) [6]; p<0.001, two-way ANOVA, difference mainly on rostral slices): significantly lowered infarction
- infarct volume (TTC staining) (stroke rats (MCAo) [6]; typical TTC staining FIG. 3A): reduced the infarct volume
- expression of BDNF in the lesioned brain (qRTPCR) ([7]; p=0.01, stroke vs. stroke+PSI): significantly upregulated
- expression of MAP2 in the stroke brain (qRTPCR) [7, 11]: significantly normalized
- expression of synaptophysin (SYP) in the stroke brain (qRTPCR) [7, 11]: significantly normalized
- expression of IBA1 in the stroke brain (qRTPCR) ([7]; stroke upregulated expression, p<0.05): significantly normalized
- body asymmetry (stroke rats (MCAo) [8]; 100 μM×20 μL i.c.v. 10-15 min prior to MCAo, p=0.00345): significantly decreased
- horizontal activity (HACTV) (stroke rats (MCAo) [8]; 100 μM×20 μL i.c.v. prior to MCAo, one hour, p=0.0246): significantly increased
- movement time (MOVTIME) (stroke rats (MCAo) [8]; 100 μM×20 μL i.c.v. prior to MCAo, p=0.00351): significantly increased
- total distance traveled (TOTODIST) (stroke rats (MCAo) [8]; 100 μM×20 μL i.c.v. prior to MCAo, p=0.0103): significantly increased
- movement number (MOVNO) (stroke rats (MCAo) [8]; 100 μM×20 μL i.c.v. prior to MCAo, p=0.0479): significantly increased
- crossing of the blood-brain barrier [9]: inefficient to freely cross the blood-brain barrier

SMILES: N[C@@H](CCC(=O)O)C(=O)O [Glutamate]
- MAP2 immunoreactivity (MAP2-ir) ([5]; Glutamate 100 μM added on DIV10, fixed DIV12, p<0.001): significantly reduced
